# Values quoted from earlier work as cited in US7759312B2 (priority 2005, dated 2010).
# Assays:
# GH = conditions: following a subcutaneous octreotide injection
# [1] = patients with acromegaly
# IGF-1 = conditions: acromegaly
substance,measurement,setting,value
"L-cysteinamide, D-phenylalanyl-L-cysteiny-L-phenylalanyl-D-tryptophyl-L-lysyl-L-threonyl-N-[2-hydroxy-1-(hydroxymethyl)propyl]-,cyclic(2→7)-disulfide; [Octreotide, L-cysteinamide, D-phenylalanyl-L-cysteiny-L-phenylalanyl-D-tryptophyl-L-lysyl-L-threonyl-N-[2-hydroxy-1-(hydroxymethyl)propyl]-,cyclic(2→7)-disulfide; [R—(R*,R*)]]",time to decrease of GH levels,GH,within two hours
same,mean percent of the drug bound,[1],41.2%
same,total body clearance,[1],18 L/h
same,mean peak concentration,"[1]; 100 mcg dose, subcutaneous",2.8 ng/mL
same,time to mean peak concentration,"[1]; 100 mcg dose, subcutaneous",0.7 h
same,patients with normalization of IGF-1 levels,IGF-1,up to 60%
